Where a name gives a salt, the structure may show the parent alone.
Target: human GlyT1c transporter (Homo sapiens (Human), UniProt P48067)
Assay: Radioligand binding assay using recombinant CHO cell membranes expressing human GlyT1
Details: examples 88-204, radioligand not specified by footnote, read-out: radioligand binding Kiapp
Procedure: 2. Radioligand binding assays using recombinant CHO cell membranes expressing human GlyT1:
Radioligand binding to human GlyT1c transporter-expressing membranes was carried out as described in Mezler et al., Molecular Pharmacology 74:1705-1715, 2008.
More specifically, [^3H]-(R)-NPTS radioligand binding to human GlyT1c transporter-expressing membranes was measured in duplicate in a total volume of 200 μl in 96-well plates. To 100 μl of membrane suspension (yielding a final membrane protein concentration of 50 μg/ml) in assay buffer (120 mM NaCl, 2 mM KCl, 10 mM Hepes, 1 mM MgCl2, 1 mM CaCl2, pH 7.5) […] of [^3H]-(R)-NPTS (0.5 nM final) were added in assay buffer. For competition experiments 10 μl of buffer or unlabeled compound solution obtained from dilution series of test compounds in DMSO followed. An intermediate 1:10 dilution in assay buffer yielded a final DMSO concentration of 1%. Non-specific binding was determined in the presence of 10 μM Org24598 (or its racemate Org24461) for [^3H]-(R)-NPTS. After incubation at room temperature for 1 h, the incubation mixture was harvested (Tomtec Mach III U Harvester) through 96-well GF/B filter plates (PerkinElmer), presoaked for 1 h with 40 μl per well of 0.1% polyethylene-imine (PEI). After washing twice with ice-cold 50 mM Tris-HCl pH 7.4 buffer, drying and addition of 35 μl scintillator (BetaplateScint, PerkinElmer) per well followed. The radioactivity was determined by liquid scintillation spectrometry in a MicroBeta (PerkinElmer) plate counter.
Data analysis: For binding of [^3H]-(R)-NPTS to cell membranes, the calculation of Kd and Bmax values from the saturation binding assays and the IC50 values from the displacement binding was performed by iterative non-linear regression analysis adapted from the ‘Ligand’ program (Munson and Rodbard, 1980). Radioligand displacement curves in absence or in presence of increasing concentrations of tested compounds were fitted using a one-site fit and the apparent Ki values were calculated from the IC50 values using the Cheng-Prusoff equation (Cheng and Prusoff 1973).

Sequence of human GlyT1c transporter (P48067 whole entry): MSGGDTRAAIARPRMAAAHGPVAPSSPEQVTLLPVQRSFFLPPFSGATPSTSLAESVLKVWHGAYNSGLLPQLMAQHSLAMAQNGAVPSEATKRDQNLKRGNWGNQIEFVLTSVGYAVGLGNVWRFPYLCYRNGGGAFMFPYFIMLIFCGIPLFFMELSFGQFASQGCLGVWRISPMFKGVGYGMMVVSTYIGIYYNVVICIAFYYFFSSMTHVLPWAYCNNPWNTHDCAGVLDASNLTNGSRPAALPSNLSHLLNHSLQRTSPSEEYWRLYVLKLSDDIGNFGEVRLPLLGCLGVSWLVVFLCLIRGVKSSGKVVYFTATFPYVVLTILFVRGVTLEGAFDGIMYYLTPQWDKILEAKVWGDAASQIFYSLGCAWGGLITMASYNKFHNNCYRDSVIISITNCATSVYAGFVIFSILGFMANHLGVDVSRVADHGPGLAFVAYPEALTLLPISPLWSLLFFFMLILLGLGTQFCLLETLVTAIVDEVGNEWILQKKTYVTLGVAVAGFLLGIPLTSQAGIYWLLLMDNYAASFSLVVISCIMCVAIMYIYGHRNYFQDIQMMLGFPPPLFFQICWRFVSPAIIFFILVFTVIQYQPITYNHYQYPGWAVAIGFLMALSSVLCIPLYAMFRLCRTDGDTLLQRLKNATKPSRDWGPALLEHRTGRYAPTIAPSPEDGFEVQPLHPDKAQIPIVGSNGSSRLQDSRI

| Structure (SMILES) | Ki [µM] |
| --- | --- |
| Nc1ncc(S(=O)(=O)NCCOc2ccc3c(c2)C(C2(c4ccc(Cl)cc4)CCC2)NCC3)cn1 (stereo not shown) [Example 150, 2-Amino-N-[2-({1-[1-(4-chlorophenyl)cyclobutyl]-1,2,3,4-tetrahydroisoquinolin-7-yl}oxy)ethyl]pyrimidine-5-sulfonamide] | ≤ 0.1 |
| O=S(=O)(NCCOc1ccc2c(c1)C(C1(c3ccc(Cl)cc3)CCC1)NCC2)c1cn[nH]c1 (stereo not shown) [Example 153, N-[2-({1-[1-(4-Chlorophenyl)cyclobutyl]-1,2,3,4-tetrahydroisoquinolin-7-yl}oxy)ethyl]-1H-pyrazole-4-sulfonamide hydrochloride] | ≤ 0.1 |
| COc1ccc(S(=O)(=O)NCCOc2ccc3c(c2)C(C2(c4ccc(Cl)cc4)CCC2)NCC3)cn1 (stereo not shown) [Example 156, N-[2-({1-[1-(4-Chlorophenyl)cyclobutyl]-1,2,3,4-tetrahydroisoquinolin-7-yl}oxy)ethyl]-6-methoxypyridine-3-sulfonamide hydrochloride] | ≤ 0.1 |
| Nc1cccc(S(=O)(=O)NCCOc2ccc3c(c2)C(C2(c4ccc(Cl)cc4)CCC2)NCC3)c1 (stereo not shown) [Example 157, 3-Amino-N-[2-({1-[1-(4-chlorophenyl)cyclobutyl]-1,2,3,4-tetrahydroisoquinolin-7-yl}oxy)ethyl]benzenesulfonamide dihydrochloride] | ≤ 0.1 |
| O=S(=O)(NCCOc1ccc2c(c1)C(C1(c3ccc(Cl)cc3)CCC1)NCC2)C1CCNC1 (stereo not shown) [Example 159, N-[2-({1-[1-(4-Chlorophenyl)cyclobutyl]-1,2,3,4-tetrahydroisoquinolin-7-yl}oxy)ethyl]pyrrolidine-3-sulfonamide dihydrochloride] | ≤ 0.1 |
| O=S(=O)(CCN1CCCCC1)NCCOc1ccc2c(c1)C(C1(c3ccc(Cl)cc3)CCC1)NCC2 (stereo not shown) [Example 161, N-[2-({1-[1-(4-Chlorophenyl)cyclobutyl]-1,2,3,4-tetrahydroisoquinolin-7-yl}oxy)ethyl]-2-(piperidin-1-yl)ethanesulfonamide (2E)-but-2-enedioate] | ≤ 1 |
| CNc1nnc(S(=O)(=O)NCCOc2ccc3c(c2)C(C2(c4ccc(Cl)cc4)CCC2)NCC3)s1 (stereo not shown) [Example 162, N-[2-({1-[1-(4-Chlorophenyl)cyclobutyl]-1,2,3,4-tetrahydroisoquinolin-7-yl}oxy)ethyl]-5-(methylamino)-1,3,4-thiadiazole-2-sulfonamide hydrochloride] | ≤ 1 |
| Nc1ncc(S(=O)(=O)NCCOc2ccc3c(c2)C(C2(c4ccc(Cl)cc4)CCC2)NCC3)s1 (stereo not shown) [Example 163, 2-Amino-N-[2-({1-[1-(4-chlorophenyl)cyclobutyl]-1,2,3,4-tetrahydroisoquinolin-7-yl}oxy)ethyl]-1,3-thiazole-5-sulfonamide dihydrochloride] | ≤ 1 |
| O=S(=O)(NCCOc1ccc2c(c1)C(C1(c3ccc(Cl)cc3)CCC1)NCC2)C1CNC1 (stereo not shown) [Example 166, N-[2-({1-[1-(4-Chlorophenyl)cyclobutyl]-1,2,3,4-tetrahydroisoquinolin-7-yl}oxy)ethyl]azetidine-3-sulfonamide (2E)-but-2-enedioate] | ≤ 1 |
| CC(C)NCCS(=O)(=O)NCCOc1ccc2c(c1)C(C1(c3ccc(Cl)cc3)CCC1)NCC2 (stereo not shown) [Example 169, N-[2-({1-[1-(4-Chlorophenyl)cyclobutyl]-1,2,3,4-tetrahydroisoquinolin-7-yl}oxy)ethyl]-2-(propan-2-ylamino)ethanesulfonamide] | ≤ 1 |
| O=C(OCc1ccccc1)N1CCC(S(=O)(=O)NCCOc2ccc3c(c2)C(C2(c4ccc(Cl)cc4)CCC2)NCC3)C1 (stereo not shown) [Example 170, Benzyl 3-{[2-({1-[1-(4-chlorophenyl)cyclobutyl]-1,2,3,4-tetrahydroisoquinolin-7-yl}oxy)ethyl]sulfamoyl}pyrrolidine-1-carboxylate] | ≤ 1 |
| CCCS(=O)(=O)NCCOc1ccc2c(c1)C(C1(c3ccc(Cl)cc3)CCC1)N(C(C)=O)CC2 (stereo not shown) [Example 171, N-[2-({2-Acetyl-1-[1-(4-chlorophenyl)cyclobutyl]-1,2,3,4-tetrahydroisoquinolin-7-yl}oxy)ethyl]propane-1-sulfonamide] | ≤ 10 |
| O=S(=O)(NCCOc1ccc2c(c1)C(C1(c3ccc(Cl)cc3)CCC1)NCC2)c1ccc(Oc2ccccc2)nc1 (stereo not shown) [Example 173, N-[2-({1-[1-(4-Chlorophenyl)cyclobutyl]-1,2,3,4-tetrahydroisoquinolin-7-yl}oxy)ethyl]-6-phenoxypyridine-3-sulfonamide hydrochloride] | ≤ 10 |
| CCCS(=O)(=O)N(CCN)CCOc1ccc2c(c1)C(C1(c3ccc(Cl)cc3)CCC1)NCC2 (stereo not shown) [Example 174, N-(2-Aminoethyl)-N-[2-({1-[1-(4-chlorophenyl)cyclobutyl]-1,2,3,4-tetrahydroisoquinolin-7-yl}oxy)ethyl]propane-1-sulfonamide dihydrochloride] | ≤ 10 |
| O=S(=O)(NCCOc1ccc2c(c1)C(C1(c3ccc(Cl)cc3)CCC1)NCC2)C1CCN(Cc2ccccc2)CC1 (stereo not shown) [Example 177, 1-Benzyl-N-[2-({1-[1-(4-chlorophenyl)cyclobutyl]-1,2,3,4-tetrahydroisoquinolin-7-yl}oxy)ethyl]piperidine-4-sulfonamide hydrochloride] | ≤ 10 |
| CNCCCS(=O)(=O)NCCOc1ccc2c(c1)C(C1(c3ccc(Cl)cc3)CCC1)NCC2 (stereo not shown) [Example 178, N-[2-({1-[1-(4-Chlorophenyl)cyclobutyl]-1,2,3,4-tetrahydroisoquinolin-7-yl}oxy)ethyl]-3-(methylamino)propane-1-sulfonamide (2E)-but-2-enedioate] | ≤ 10 |
| CC(=O)N1CC(S(=O)(=O)NCCOc2ccc3c(c2)C(C2(c4ccc(Cl)cc4)CCC2)NCC3)C1 (stereo not shown) [Example 180, 1-Acetyl-N-[2-({1-[1-(4-chlorophenyl)cyclobutyl]-1,2,3,4-tetrahydroisoquinolin-7-yl}oxy)ethyl]azetidine-3-sulfonamide di[(2E)-but-2-enedioate]] | ≤ 10 |
| NCCCCS(=O)(=O)NCCOc1ccc2c(c1)C(C1(c3ccc(Cl)cc3)CCC1)NCC2 (stereo not shown) [Example 184, 4-Amino-N-[2-({1-[1-(4-chlorophenyl)cyclobutyl]-1,2,3,4-tetrahydroisoquinolin-7-yl}oxy)ethyl]butane-1-sulfonamide (2E)-but-2-enedioate] | ≤ 10 |
| CN1CCOc2cc(S(=O)(=O)NCCOc3ccc4c(c3)C(C3(c5ccc(Cl)cc5)CCC3)NCC4)cnc21 (stereo not shown) [Example 185, N-[2-({1-[1-(4-Chlorophenyl)cyclobutyl]-1,2,3,4-tetrahydroisoquinolin-7-yl}oxy)ethyl]-4-methyl-3,4-dihydro-2H-pyrido[3,2-b][1,4]oxazine-7-sulfonamide hydrochloride] | ≤ 10 |
| CC(=O)Nc1ncc(S(=O)(=O)NCCOc2ccc3c(c2)C(C2(c4ccc(Cl)cc4)CCC2)NCC3)s1 (stereo not shown) [Example 188, N-(5-{[2-({1-[1-(4-Chlorophenyl)cyclobutyl]-1,2,3,4-tetrahydroisoquinolin-7-yl}oxy)ethyl]sulfamoyl}-1,3-thiazol-2-yl)acetamide hydrochloride] | ≤ 10 |
| O=S(=O)(NCCOc1ccc2c(c1)C(C1(c3ccc(Cl)cc3)CCC1)NCC2)c1ccc(N2CCOCC2)nc1 (stereo not shown) [Example 189, N-[2-({1-[1-(4-Chlorophenyl)cyclobutyl]-1,2,3,4-tetrahydroisoquinolin-7-yl}oxy)ethyl]-6-(morpholin-4-yl)pyridine-3-sulfonamide hydrochloride] | ≤ 10 |
| O=S(=O)(NCCOc1ccc2c(c1)C(C1(c3ccc(Cl)cc3)CCC1)NCC2)C1CCNCC1 (stereo not shown) [Example 190, N-[2-({1-[1-(4-Chlorophenyl)cyclobutyl]-1,2,3,4-tetrahydroisoquinolin-7-yl}oxy)ethyl]piperidine-4-sulfonamide dihydrochloride] | ≤ 10 |
| NC(=O)Nc1ccc(S(=O)(=O)NCCOc2ccc3c(c2)C(C2(c4ccc(Cl)cc4)CCC2)NCC3)cc1 (stereo not shown) [Example 191, 4-(Carbamoylamino)-N-[2-({1-[1-(4-chlorophenyl)cyclobutyl]-1,2,3,4-tetrahydroisoquinolin-7-yl}oxy)ethyl]benzenesulfonamide hydrochloride] | ≤ 10 |
| O=S(=O)(NCCOc1ccc2c(c1)C(C1(c3ccc(Cl)cc3)CCC1)NCC2)c1ncn[nH]1 (stereo not shown) [Example 199, N-[2-({1-[1-(4-Chlorophenyl)cyclobutyl]-1,2,3,4-tetrahydroisoquinolin-7-yl}oxy)ethyl]-1H-1,2,4-triazole-5-sulfonamide] | ≤ 10 |
| Nc1n[nH]c(S(=O)(=O)NCCOc2ccc3c(c2)C(C2(c4ccc(Cl)cc4)CCC2)NCC3)n1 (stereo not shown) [Example 203, 3-Amino-N-[2-({1-[1-(4-chlorophenyl)cyclobutyl]-1,2,3,4-tetrahydroisoquinolin-7-yl}oxy)ethyl]-1H-1,2,4-triazole-5-sulfonamide dihydrochloride] | ≤ 100 |

— patent US8653100B2 (AbbVie Inc., priority 2008, dated 2014)
